Biological target: D2 receptor (Homo sapiens, UniProt P14416)
Experiment: PET central D2 occupancy studies SWE-1 and SIV-101
Type: in vivo
Description: It has been empirically derived and is currently widely excepted that 65-70% occupancy is needed for antipsychotics to show clinical efficacy (Farde et al.), i.e. improvement on the PANSS scale. A too high occupancy (80-85%) will typically increase the risk to develop EPS. In order to determine the central D2 occupancy, PET trials in human healthy volunteers are typically performed.

Chain of D2 receptor (P14416 whole entry): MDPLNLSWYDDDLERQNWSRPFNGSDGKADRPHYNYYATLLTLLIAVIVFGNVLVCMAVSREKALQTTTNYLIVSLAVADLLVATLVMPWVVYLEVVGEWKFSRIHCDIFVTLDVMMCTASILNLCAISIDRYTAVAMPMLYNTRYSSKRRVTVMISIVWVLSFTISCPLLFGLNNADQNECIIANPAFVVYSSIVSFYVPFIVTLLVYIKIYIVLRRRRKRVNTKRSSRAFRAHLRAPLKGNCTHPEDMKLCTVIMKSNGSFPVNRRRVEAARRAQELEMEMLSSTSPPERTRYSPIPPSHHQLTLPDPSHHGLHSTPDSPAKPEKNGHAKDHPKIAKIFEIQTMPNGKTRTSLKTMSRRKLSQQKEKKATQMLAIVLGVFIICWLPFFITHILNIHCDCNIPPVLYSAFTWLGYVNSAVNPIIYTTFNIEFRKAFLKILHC

In the case of `Cc1nc2n(c(=O)c1CCN1CCC(c3noc4cc(F)ccc34)CC1)CCCC2O` (centres unmarked) [paliperidone, 9-hydroxy-risperidone], the Kd is reported as 10.3 to 15 nM and the “exposure range for efficacy without an increased risk to develop EPS (target exposure range)” value (calculated using the 65-85% D2 occupancy window) is reported as 7.5 to 40 ng/mL.

Source: patent publication US9439906B2, “Dosing regimen associated with long acting injectable paliperidone esters” (Janssen Pharmaceutica NV, priority 2007, dated 2016)
